# Measured values as given in patent publication US5426099A, “Process for inducing analgesia, peptides and therapeutic compositions” (Rutgers, The State University of New Jersey, priority 1991, dated 1995).
# “Also recorded” adds a separate entry of the source. Where no end group is shown, it is not given here.
# Assays:
# [1] = tested on: female Sprague-Dawley rats; experiment: Tail-flick latency to radiant heat
# [2] = tested on: female Sprague-Dawley rats; experiment: Vocalization threshold to tail shock; type: in vivo, rat; settings: intrathecal; for elevation in vocalization threshold: 30 min. postinjection; for vocalization threshold compared with saline group (significance): sulfate
# Source text: Electrical stimulation (100 millisecond trains of 60 Hz square waveform at three-second intervals ranging from 0.01 to 0.4 mA in 0.01 mA increments) is applied (under computer control using a Commodore 64C computer and a Coulbourn constant current stimulator) to the surface of the tail via two lengths of blunt 18-ga stainless steel tubing coated with conductive gel (Spectra 360 Electrode Gel; Parker Laboratories Inc., Orange, N.J. 07050) and taped to the midsection of the tail 2 cm apart, parallel to the axis of the tail. An ascending/descending method of limits is used to estimate the threshold (in mA) to induce vocalization. In this method, an observer records whether or not vocalization occurs in response to each shock. If an animal vocalizes at a particular current intensity, the current intensity is then reduced stepwise until a shock no longer elicits a vocalization response. Then the current is increased stepwise until the animal again vocalizes, and so on, until all mA values for 6 such inversions are obtained. The vocalization threshold estimate is the mean of these 6 values.
# The vocalization threshold to tail shock increased by 70% over baseline (pre-injection) levels by the first minute after the intrathecal injection of VIP 11-28 (molar quantity equivalent to 25 mcg VIP 11-28, hereafter referred to as 25 mcge [microgram equivalents]).
# Female Sprague-Dawley rats weighing 250 g are used in the testing. The rats are ovariectomized and implanted surgically through the cisterna magna with an intrathecal catheter (i.t.) (PE 10 polyethylene tubing 7.5 cm length) at least 1 week before testing.
# vagina = tested on: vagina; set-up: key: + = Stimulation; - = Inhibition; settings: Fahrenkrug+ 88; cited from earlier work
# brain (amygdala) = tested on: brain (amygdala); set-up: key: + = Stimulation; - = Inhibition; settings: Quik+ 79; cited from earlier work
# [3] = intrathecal injection; Cridland and Henry 1988; cited from earlier work
# Schwann cell = settings: Evans+; cited from earlier work
# systemic = tested on: systemic; set-up: key to cardiac output / blood pressure / arterial blood flow: + = Stimulation; - = Inhibition; settings: Said, cited from earlier work
# gastric mucosa = tested on: gastric mucosa; set-up: key: + = Stimulation; - = Inhibition; settings: Sutliff+ 86; cited from earlier work
# brain arteries = settings: Suzuki+ 84; cited from earlier work
# [4] = reported; cited from earlier work
# arterial cells = tested on: arterial cells; set-up: key: + = Stimulation; - = Inhibition; settings: Huang+ 84; cited from earlier work
# trachea = settings: Said, Mutt+ 77; cited from earlier work
# lumbo-sacral spinal cord = settings: administered to rats to the intrathecal space of the lumbo-sacral spinal cord; Komisaruk et al. 1988; cited from earlier work
# mononuclear cells = tested on: mononuclear cells; set-up: key: + = Stimulation; - = Inhibition; settings: Ottaway+ 83; cited from earlier work
# ovarian granulosa = tested on: ovarian granulosa; set-up: key: + = Stimulation; - = Inhibition; settings: cited from earlier work
# bronchi = settings: Palmer+ 86; cited from earlier work
# colon = tested on: colon; set-up: key: + = Stimulation; - = Inhibition; settings: cited from earlier work
# eye = tested on: eye; set-up: key: + = Stimulation; - = Inhibition; settings: cited from earlier work
# spinal cord cult. = tested on: spinal cord cult.; set-up: key: + = Stimulation; - = Inhibition; settings: Brenneman 88; cited from earlier work
# colonic cells = tested on: colonic cells; set-up: key: + = Stimulation; - = Inhibition; settings: McCabe+ 88; cited from earlier work
# heart = tested on: heart; set-up: key: + = Stimulation; - = Inhibition; settings: Smitherman+ 88; cited from earlier work
# [5] = tested on: periaqueductal gray matter; settings: administered to rats directly into the periaqueductal gray matter; Sullivan and Pert 1981; cited from earlier work
# stomach = settings: Said, Mutt+ 77; cited from earlier work
# kidney = tested on: kidney; set-up: key: + = Stimulation; - = Inhibition; settings: Porter+ 88; cited from earlier work
# pancreatic acini = tested on: pancreatic acini; set-up: key: + = Stimulation; - = Inhibition; settings: Musso+ 88; cited from earlier work
# pit. tumor cells = settings: Westendorf+ 83; cited from earlier work
# brain (IV vent.) = tested on: brain (IV vent.); set-up: key: + = Stimulation; - = Inhibition; settings: Drucker-Colin+ 88; cited from earlier work
# genital tract = tested on: genital tract; set-up: key: + = Stimulation; - = Inhibition; settings: Fahrenkrug+ 88; cited from earlier work
# dienceph. cells = tested on: dienceph. cells; set-up: key: + = Stimulation; - = Inhibition; settings: Reichlin 88; cited from earlier work
# [6] = set-up: key: + = Stimulation; - = Inhibition; settings: Pandol+ 86; cited from earlier work
# skin = tested on: skin; set-up: key: + = Stimulation; - = Inhibition; settings: Yanaihara+ 87; cited from earlier work
# pancreatic cells = tested on: pancreatic cells; set-up: key: + = Stimulation; - = Inhibition; settings: Robberecht+ 76; cited from earlier work
# uterus = settings: Morris+ 89; cited from earlier work
# cortical slices = tested on: cortical slices; set-up: key: + = Stimulation; - = Inhibition; settings: Magistretti+ 84; cited from earlier work
# [7] = tested on: female Sprague-Dawley rats; experiment: Vocalization threshold to tail shock; type: in vivo, rat; settings: intravenous, 3 mg
# smooth muscle = experiment: Smooth muscle relaxant action
molecule,measurement,setting,value
CN1CC[C@]23c4c5ccc(O)c4O[C@H]2[C@@H](O)C=C[C@H]3[C@H]1C5.O=S(=O)(O)O [morphine sulfate],TFL compared with other groups (significance),"[1]; intrathecal, 5 mcg",significantly greater than saline at 15 min. and all other groups except morphine 25 mcg at all points from 30-60 min.
same,TFL compared with other groups (significance),"[1]; intrathecal, 25 mcg, p<0.05, two-tailed, Duncan test",significantly greater than all other groups at all points from 5-60 minutes
same,elevation in vocalization threshold,[2]; 25 mcg,60%
same,vocalization threshold compared with saline group (significance),"[2]; 25 mcg, p<0.05, listed as morphine",significantly greater than the saline group
same,vocalization threshold compared with saline group (significance),"[2]; 25 mcg, p<0.05",significant elevation in vocalization threshold over the saline group at 20 and 30 min. post injection
"CC[C@H](C)[C@H](NC(=O)[C@H](CO)NC(=O)[C@H](CC(N)=O)NC(=O)[C@H](CC(C)C)NC(=O)[C@H](Cc1ccc(O)cc1)NC(=O)[C@H](CCCCN)NC(=O)[C@H](CCCCN)NC(=O)[C@@H](NC(=O)[C@H](C)NC(=O)[C@H](CCSC)NC(=O)[C@H](CCC(N)=O)NC(=O)[C@H](CCCCN)NC(=O)[C@H](CCCNC(=N)N)NC(=O)[C@H](CC(C)C)NC(=O)[C@H](CCCNC(=N)N)NC(=O)[C@@H](NC(=O)[C@H](Cc1ccc(O)cc1)NC(=O)[C@H](CC(N)=O)NC(=O)[C@H](CC(=O)O)NC(=O)[C@@H](NC(=O)[C@H](Cc1ccccc1)NC(=O)[C@@H](NC(=O)[C@H](C)NC(=O)[C@H](CC(=O)O)NC(=O)[C@H](CO)NC(=O)[C@@H](N)Cc1c[nH]cn1)C(C)C)[C@@H](C)O)[C@@H](C)O)C(C)C)C(=O)N[C@@H](CC(C)C)C(=O)N[C@@H](CC(N)=O)C(N)=O [VIP 1-28, NH--His--Ser--Asp--Ala--Val--Phe--Thr--Asp--Asn--Tyr--Thr--Arg--Leu--Arg--Lys--Gln--Met--Ala--Val--Lys--Lys--Tyr--Leu--Asn--Ser--Ile--Leu--Asn--Amide]",lubrication,vagina,+
same,cyclic AMP,brain (amygdala),+
same,reaction time on a nociceptive test,[3],reduced reaction time
same,neuronal hyperpolarization,Schwann cell,neuronal hyperpolarization
same,cardiac output,systemic; Mutt 75,+
same,hyperglycemia,systemic; Mutt 75,hyperglycemia
same,respiratory stimulation,systemic; Mutt 75,respiratory stimulation
same,arterial blood flow,systemic; Mutt+ 77,+
same,blood pressure,systemic; Mutt+ 77,-
same,cyclic Amp,gastric mucosa,+
same,pepsinogen secretion,gastric mucosa,+
same,vasodilation,brain arteries,30
same,systemic vasodilator activity,[4],has systemic vasodilator activity
same,adenylate cyclase,arterial cells,+
same,TFL elevation compared with saline group (significance),"[1]; intrathecal, VIP 1-28 group","approached, but did not reach, significance"
same,smooth muscle relaxation,trachea,smooth muscle relaxation
same,analgesia through the central nervous system,lumbo-sacral spinal cord,induced analgesia
same,cyclic AMP,mononuclear cells,+
same,androgen secretion,ovarian granulosa; Johnson 88,+
same,progesterone secretion,ovarian granulosa; Johnson+ 88,+
same,bronchodilation,bronchi,bronchodilation
same,smooth muscle motility,"colon; Said, Mutt+ 77",+
same,water flow,colon; Waldman+ 77,+
same,tear secretion,eye; Gilbard+ 88,+
same,intraocular pressure,eye; Mittag+ 87,-
same,neuronal survival,spinal cord cult.,+
same,chloride secretion,colonic cells,+
same,blood flow,heart,+
same,analgesia through the central nervous system,[5],induced analgesia
same,smooth muscle relaxation,stomach,smooth muscle relaxation
same,renin secretion rate,kidney,+
same,amylase release,pancreatic acini,+
same,"ACTH, endorphin release",pit. tumor cells,"ACTH, endorphin release"
same,REM sleep,brain (IV vent.),+
same,blood flow,genital tract,+
same,somatostatin release,dienceph. cells,+
same,amylase release,[6],+
same,hair growth,skin,+
same,cyclic AMP,pancreatic cells,+
same,arterial relaxation,uterus,arterial relaxation
same,glycogenolypis,cortical slices,+
"TRLRKQMAVKKYLNSILN-NH2 [VIP 11-28, NH--Thr--Arg--Leu--Arg--Lys--Gln--Met--Ala--Val--Lys--Lys--Tyr--Leu--Asn--Ser--Ile--Leu--Asn--Amide]",time of maximum vocalization threshold after injection,[7],1 min
same,vocalization threshold compared with saline (significance),[7],"approached, but did not reach, significance; also recorded: approaching, but not attaining, significance"
same,TFL change compared with saline group (significance),"[1]; intrathecal, 25 mcge, p<0.05, two-tailed, multiple t-test",significantly greater than the saline group
same,"mean TFL elevation, maximum, greater than the preinjection baseline level","[1]; intravenous (jugular vein catheter), 3 mg, 1 minute after injection, n=10",80%
same,TFL compared with saline control group (significance),"[1]; intravenous, 3 mg, p<0.05, 2-tailed, Scheffe test",significantly greater effect than saline
same,smooth muscle relaxant action,smooth muscle,has shown smooth muscle relaxant action
same,elevation in vocalization threshold,[2]; 25 mcge,170%
same,"vocalization threshold to tail shock, increase over baseline (pre-injection) levels","[2]; 25 mcge, first minute after injection, n=10",70%
same,persistence of the significant threshold elevating effect,"[2]; 25 mcge, vocalization threshold",≥ 60 min
same,vocalization threshold elevation compared with 25 mcg morphine sulfate (significance),"[2]; 25 mcge, at 1-15, 30 and 60 min. postinjection, p<0.05",significantly greater than both the morphine and the saline groups; also recorded: significantly more effective in elevating vocalization thresholds than 25 mcg morphine sulfate
same,vocalization threshold compared with saline control group (significance),"[2]; 25 mcge, p<0.05, 2-tailed, multiple t-tests",elevated over the saline control group levels at each test for the duration of the 60 min. test period
same,persistence of threshold elevating effect longer than analgesia produced by VIP 1-28,[2]; vocalization threshold,at least 30 min.
same,onset of analgesia post i.t. injection,[2]; vocalization threshold test,1 min
